The text below walks through data of patent US20150353495A1 (PORTOLA PHARMACEUTICALS, INC., priority 2010, published 2015).

pIC50: −log10 of the molar value.

Format in all cases: biochemical
For one assay, the target named is T1, JAK1 (Homo sapiens, UniProt P23458).
T1 construct: 5 μl of catalytic domain recombinant Kinase enzyme+Tyr peptide substrate (Invitrogen, CA); purchased Invitrogen
Description: Z'-LYTE kinase assay JAK1. Summed up: (§1)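 In duplicate wells, each test molecule (1% final DMSO) is incubated with recombinant kinase catalytic domain, Tyr6 peptide substrate and ATP for one hour at room temperature; a site-specific protease is then added for another hour before fluorescence reading.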

A further assay has as its target T2, JAK2 (Homo sapiens, UniProt O60674).
T2 construct: 5 μl of catalytic domain recombinant Kinase enzyme+Tyr peptide substrate (Invitrogen, CA); purchased Invitrogen
Description: Z'-LYTE kinase assay JAK2. The essentials:
as §1

Another assay deals with T3, JAK3 (Homo sapiens, UniProt P52333).
T3 construct: 5 μl of catalytic domain recombinant Kinase enzyme+Tyr peptide substrate (Invitrogen, CA); purchased Invitrogen
T3 sequence (P52333 822-1111 limits assumed): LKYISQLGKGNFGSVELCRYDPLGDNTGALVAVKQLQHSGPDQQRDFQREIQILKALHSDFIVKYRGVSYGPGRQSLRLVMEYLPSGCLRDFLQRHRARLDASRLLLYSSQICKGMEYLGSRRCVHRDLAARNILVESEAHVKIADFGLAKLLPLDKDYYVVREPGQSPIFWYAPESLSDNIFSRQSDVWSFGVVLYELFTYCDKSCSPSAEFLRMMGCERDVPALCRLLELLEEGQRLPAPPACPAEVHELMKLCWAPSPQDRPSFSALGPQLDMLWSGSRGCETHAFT
The experiment in a line: Z'-LYTE kinase assay JAK3. The essentials: as §1

The target in a further assay is T4, TYK2 (Homo sapiens, UniProt P29597).
T4 construct: 5 μl of catalytic domain recombinant Kinase enzyme+Tyr peptide substrate (Invitrogen, CA); purchased Invitrogen
T4 sequence (P29597 897-1176 limits assumed): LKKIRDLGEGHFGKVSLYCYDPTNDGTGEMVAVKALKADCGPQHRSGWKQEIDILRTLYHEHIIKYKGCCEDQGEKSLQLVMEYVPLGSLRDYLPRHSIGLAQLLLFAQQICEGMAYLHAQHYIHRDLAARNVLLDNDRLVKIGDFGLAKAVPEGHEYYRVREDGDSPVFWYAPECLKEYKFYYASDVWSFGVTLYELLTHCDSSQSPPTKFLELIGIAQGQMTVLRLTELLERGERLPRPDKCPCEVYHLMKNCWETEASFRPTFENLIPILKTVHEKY
Description: Z'-LYTE kinase assay TYK2. The protocol:
JAK and TYK2 tyrosine phosphorylation activity is measured using the Z′-LYTE™ Technology developed by Invitrogen Corporation (Carlsbad, Calif.). For JAK1, JAK2 and JAK3 the Z′-LYTE™ Kinase Assay Kit-Tyr6 Peptide (part number PV4122) was used. For TYK2 the Z′-LYTE™ Kinase Assay Kit-Tyr6 Peptide (part number PV3192) was used. The Z′-LYTE™ biochemical assay employs a fluorescence resonance energy transfer (FRET) coupled-enzyme format and is based on the differential sensitivity of phosphorylated and non-phosphorylated peptides to proteolitic cleavage. The assay uses a synthetic peptide substrate that is labelled with a donor fluorophore (coumarin) and an acceptor fluorophore (fluorescein) that make up a FRET pair. In the primary reaction (the Kinase Reaction), the kinase transfers the γ-phosphate of ATP to a single tyrosine residue on the substrate, while the presence of a kinase inhibitor in the primary reaction suppresses phosphorylation. In the secondary reaction (the Development Reaction), a site-specific protease (the Development Reagent) is added. The development buffer quenches the Kinase Reaction, while the protease recognizes and cleaves non-phosphorylated Z′-LYTE™ peptide substrate. Cleavage disrupts FRET between the donor and acceptor fluorophores on the non-phosphoryleted substrate, while uncleaved, phosphorylated substrate maintains FRET.
To test the ability of candidate molecules to inhibit JAK tyrosine phosphorylation activity, molecules are reconstituted in 100% DMSO and serially diluted 1:10 in polypropylene v-bottom microtiter plates. The candidate molecules are then diluted 1:25 into kinase buffer and 2.5 μl transferred into duplicate wells of a 384 well low volume black microtiter assay plate (Corning, USA). The final DMSO concentration in the assay is 1%. The kinase reaction contains 2.5 μl of a candidate molecule, 5 μl of catalytic domain recombinant Kinase enzyme+Tyr peptide substrate (Invitrogen, CA) and 2.5 μl ATP (Invitrogen, CA). The kinase reaction is allowed to procede for 1 hour at room temperature. The protease reaction is initiated by the addition of 5 μl Development Reagent (Invitrogen, CA). After 1 hour incubation at room temperature the fluorescence is measured using a FlexStation plate reader (Molecular Devices, Sunnyvale, Calif.). The reader settings used are as follows: Fluorescence mode, endpoint, top read, excitation 400 nm, emission 445 nm and 520 nm, Auto Cutoff 435 nm and 515 nm, PMT sensitivity high, 6 reads per well Inhibition of JAK kinase activity is calculated as the percent phosphorylation of substrate in the presence of inhibitor compared to the percent phosphorylation of substrate in the absence of inhibitor. IC50's were derived using Xlfit 4.3 (IDBS, UK), 4 parameter logistic model 205: Y=(A+4B-A)/(1+((C/x)AD)))).

T1 sequence (P23458 875-1153 limits assumed): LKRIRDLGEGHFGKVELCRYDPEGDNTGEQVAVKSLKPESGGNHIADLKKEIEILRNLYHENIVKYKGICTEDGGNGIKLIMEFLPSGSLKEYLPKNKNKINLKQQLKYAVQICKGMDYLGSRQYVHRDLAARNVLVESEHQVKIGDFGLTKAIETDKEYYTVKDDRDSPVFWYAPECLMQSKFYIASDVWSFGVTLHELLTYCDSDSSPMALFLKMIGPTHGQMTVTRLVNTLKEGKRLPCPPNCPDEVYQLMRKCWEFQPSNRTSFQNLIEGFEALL
T2 sequence (O60674 849-1124 limits assumed): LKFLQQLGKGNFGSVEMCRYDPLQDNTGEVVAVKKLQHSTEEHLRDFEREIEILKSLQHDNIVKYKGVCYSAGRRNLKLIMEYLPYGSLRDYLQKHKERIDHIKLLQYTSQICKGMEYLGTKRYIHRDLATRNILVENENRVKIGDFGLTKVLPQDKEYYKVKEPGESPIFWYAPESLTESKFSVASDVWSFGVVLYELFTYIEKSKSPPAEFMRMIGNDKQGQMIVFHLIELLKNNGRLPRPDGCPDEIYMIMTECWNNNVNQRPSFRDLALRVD

In the case of `CC(=O)Nc1cccc(Nc2nc(NCc3ccccc3)c(C(N)=O)cc2F)c1` [Example 19, 6-(3-acetamidophenylamino)-2-(benzylamino)-5-fluoronicotinamide], the pIC50 at JAK1, on JAK2, at JAK3 and against TYK2 was < 6.00 in each case.
On to `CC(=O)Nc1cccc(Nc2nc(N[C@H](C)c3ccccc3)c(C(N)=O)cc2F)c1` [Example 20, (R)-6-(3-acetamidophenylamino)-5-fluoro-2-(1-phenylethylamino)nicotinamide], for which the pIC50 against JAK1, at JAK2, at JAK3 and against TYK2 was < 6.00 throughout.
Regarding `CC(=O)Nc1cccc(Nc2nc(N)c(C(N)=O)cc2F)c1` [Example 21, 6-(3-acetamidophenylamino)-2-amino-5-fluoronicotinamide], the pIC50 at JAK1, on JAK2, against JAK3 and at TYK2 was < 6.00 each time.
Take `NC(=O)c1cc(F)c(Nc2cccc(-n3nccn3)c2)nc1NC1CCCC1` [Example 22, 6-(3-(2H-1,2,3-triazol-2-yl)phenylamino)-2-(cyclopentylamino)-5-fluoronicotinamide]: the pIC50 on JAK1 was < 6.00; against JAK2, < 6.00; at JAK3 it was 6.00 to 7.00; against TYK2 it was < 6.00.
As to `NC(=O)c1cc(F)c(Nc2cccc(-n3nccn3)c2)nc1NCc1ccccc1` [Example 23, 6-(3-(2H-1,2,3-triazol-2-yl)phenylamino)-2-(benzylamino)-5-fluoronicotinamide], the pIC50 against JAK1, at JAK2, at JAK3 and against TYK2 was < 6.00 in each case.
Turning to `NC(=O)c1cc(F)c(Nc2cccc(-n3nccn3)c2)nc1N` [Example 24, 6-(3-(2H-1,2,3-triazol-2-yl)phenylamino)-2-amino-5-fluoronicotinamide], the pIC50 against JAK1, at JAK2, at JAK3 and against TYK2 was < 6.00 each time.
Regarding `NC(=O)c1cc(F)c(Nc2ccc(OCCN3CCCC3)cc2)nc1NC1CCCC1` [Example 25, 2-(cyclopentylamino)-5-fluoro-6-(4-(2-(pyrrolidin-1-yl)ethoxy)phenylamino)nicotinamide], the pIC50 at JAK1, against JAK2, on JAK3 and on TYK2 was < 6.00 each time.
As to `NC(=O)c1cc(F)c(Nc2ccc(OCCN3CCCC3)cc2)nc1NCc1ccccc1` [Example 26, 2-(benzylamino)-5-fluoro-6-(4-(2-(pyrrolidin-1-yl)ethoxy)phenylamino)nicotinamide], the pIC50 against JAK1, against JAK2, at JAK3 and against TYK2 was < 6.00 in each case.
On to `C[C@@H](Nc1nc(Nc2ccc(OCCN3CCCC3)cc2)c(F)cc1C(N)=O)c1ccccc1` [Example 27, (R)-5-fluoro-2-(1-phenylethylamino)-6-(4-(2-(pyrrolidin-1-yl)ethoxy)phenylamino)nicotinamide], for which the pIC50 against JAK1, against JAK2, at JAK3 and against TYK2 was < 6.00 each time.
Turning to `CC(=O)N1CCN(c2ccc(Nc3cc(NCCc4ccccc4)c(C(N)=O)cn3)cc2)CC1` [Example 29], the pIC50 at JAK1 is < 6.00; against JAK2, 6.00 to 7.00; at JAK3, 7.00 to 8.00; at TYK2, 6.00 to 7.00.
Consider `CC(C)(C)OC(=O)N1CCC(c2ccc(Nc3cc(NCc4cccc(F)c4)c(C(N)=O)cn3)cc2)CC1` [Example 77, tert-butyl 4-(4-(5-carbamoyl-4-(3-fluorobenzylamino)pyridin-2-ylamino)phenyl)piperidine-1-carboxylate], for which the pIC50 on JAK1 was < 6.00; on JAK2, < 6.00; against JAK3, 6.00 to 7.00; against TYK2 it was < 6.00.
For the compound `CN(C)C(=O)c1ccc(Nc2cc(NCc3c(F)cccc3F)c(C(N)=O)cn2)cc1` [Example 102, 4-(2,6-difluorobenzylamino)-6-(4-(dimethylcarbamoyl)phenylamino)nicotinamide], the pIC50 at JAK1 was 6.00 to 7.00; on JAK2, 7.00 to 8.00; against JAK3, 8.00 to 9.00; against TYK2, 7.00 to 8.00.
Consider `CC(=O)N1CCN(c2ccc(Nc3cc(NC4(c5ccccc5)CC4)c(C(N)=O)cn3)cc2)CC1` [Example 126, 6-(4-(4-acetylpiperazin-1-yl)phenylamino)-4-(1-phenylcyclopropylamino)nicotinamide], for which the pIC50 is < 6.00 on JAK1, 6.00 to 7.00 on JAK2, 8.00 to 9.00 against JAK3 and < 6.00 on TYK2.
For the compound `CC(=O)N1CCN(c2ccc(Nc3cc(NC4(c5ccccc5F)CC4)c(C(N)=O)cn3)cc2)CC1` [Example 130, 6-(4-(4-acetylpiperazin-1-yl)phenylamino)-4-(1-(2-fluorophenyl)cyclopropylamino)nicotinamide], the pIC50 is 6.00 to 7.00 against JAK1, 7.00 to 8.00 against JAK2, 8.00 to 9.00 at JAK3 and 6.00 to 7.00 on TYK2.
With `NC(=O)c1cnc(Nc2ccc(C3CCOCC3)cc2)cc1NCc1cccc(F)c1` [Example 143, 4-(3-fluorobenzylamino)-6-(4-(tetrahydro-2H-pyran-4-yl)phenylamino)nicotinamide], the pIC50 against JAK1 was < 6.00; on JAK2, < 6.00; on JAK3 it was 7.00 to 8.00; on TYK2, < 6.00.
For the compound `CCC(=O)N1CCC(c2ccc(Nc3cc(NCc4cc(F)ccc4F)c(C(N)=O)cn3)cc2)CC1` [Example 149, 4-(2,5-difluorobenzylamino)-6-(4-(1-propionylpiperidin-4-yl)phenylamino)nicotinamide], the pIC50 at JAK1 was 6.00 to 7.00; against JAK2, 7.00 to 8.00; against JAK3, 8.00 to 9.00; against TYK2, 6.00 to 7.00.
As to `CCC(=O)N1CCC(c2ccc(Nc3cc(NCc4cccnc4)c(C(N)=O)cn3)cc2)CC1` [Example 187, 6-(4-(1-propionylpiperidin-4-yl)phenylamino)-4-(pyridin-3-ylmethylamino)nicotinamide], the pIC50 at JAK1 was 6.00 to 7.00; at JAK2, 6.00 to 7.00; at JAK3, 7.00 to 8.00; against TYK2, 6.00 to 7.00.
Consider `CCC(=O)N1CCC(c2ccc(Nc3cc(NCc4cncc(F)c4)c(C(N)=O)cn3)cc2)CC1` [Example 188, 4-((5-fluoropyridin-3-yl)methylamino)-6-(4-(1-propionylpiperidin-4-yl)phenylamino)nicotinamide], for which the pIC50 was 6.00 to 7.00 at JAK1, 7.00 to 8.00 at JAK2, 8.00 to 9.00 on JAK3 and 6.00 to 7.00 at TYK2.
On to `CCC(=O)N1CCC(c2ccc(Nc3cc(NCC4(O)CCCC4)c(C(N)=O)cn3)cc2)CC1` [Example 193, 4-((1-hydroxycyclopentyl)methylamino)-6-(4-(1-propionylpiperidin-4-yl)phenylamino)nicotinamide], for which the pIC50 on JAK1 was < 6.00; on JAK2, 6.00 to 7.00; against JAK3, 7.00 to 8.00; against TYK2, 6.00 to 7.00.
Consider `CCC(=O)N1CCC(c2ccc(Nc3cc(NCc4cc(F)cc(F)c4)c(C(N)=O)cn3)cc2)CC1` [Example 195, 4-(3,5-difluorobenzylamino)-6-(4-(1-propionylpiperidin-4-yl)phenylamino)nicotinamide], for which the pIC50 against JAK1 is < 6.00; against JAK2 it was 7.00 to 8.00; against JAK3, 8.00 to 9.00; at TYK2 it was < 6.00.
